Results as given in ChEMBL document CHEMBL1155247, “SAR and biological evaluation of SEN12333/WAY-317538: Novel alpha 7 nicotinic acetylcholine receptor agonist” (Bioorg Med Chem, 2009).

Target: Neuronal acetylcholine receptor subunit alpha-7 (Rattus norvegicus) (UniProt Q05941)
Assay: Selectivity for rat alpha7 nAChR over human alpha3 nAChR

## Cl.O=C(CCCCN1CCOCC1)Nc1ccc(-c2cccnc2)cc1
  Selectivity ratio: 5.3
